Consider one molecule from patent publication US20080300298A1, “Honokiol Derivates For the Treatment of Proliferative Disorders” (priority 2005, published 2008).

The subject of one assay is SU-DHL-4 cells. Description: induction of apoptosis. It is filed as cell-based. Conditions: cells resistant to doxorubicin and As2O3-induced apoptosis; without activation of caspase 3. The source says:
However, in contrast to the complete block of As2O3-induced apoptosis by z-VAD-fmk, inhibition of HNK-induced apoptosis by z-VAD-fmk was only partial, evidenced by PARP cleavage and APO2.7 assay (FIGS. 7B and D).
HNK induces apoptosis in SU-DHL4 cells, which express low levels of caspase-8 and -3 and are resistant to doxorubicin, As2O3, melphalan, dexamethasone, bortezomib (Chauhan et al. Cancer Res. 2003; 63:6174-6177), and revlimid. Therefore, agents such as HNK which kill MM cells via both caspase-dependent and caspase-independent pathways may be particularly useful to overcome drug resistance.

Another assay has as its system KBM-5 cells. Briefly: Live and dead assay. To be noted: KBM-5, TNF 1 nM with honokiol (10 mM printed); TNF alone 5%. It is filed as cell-based, human. The procedure: (D) depicts that honokiol enhances TNF-induced cell death.
Live and dead assay. The Live and Dead assay (Molecular Probes), which determines intracellular esterase activity and plasma membrane integrity, was used to measure apoptosis. […] It also uses the […] (red fluorescence), which can enter cells only through damaged membranes and bind to nucleic acids but is excluded by the intact plasma membrane of live cells. Briefly, 1×10^5 cells were incubated with […] honokiol for 24 h and then treated with 1 nM TNF for 16 h at 37° C. Cells were stained with the Live and Dead reagent (5 mM ethidium homodimer, 5 mM calcein-AM) and then incubated at 37° C. for 30 min. Cells were analyzed under a fluorescence microscope (Labophot-2, Nikon, Tokyo, Japan).
By using caspase-activated PARP cleavage, it was shown that the enhanced cytotoxicity was due to apoptosis. TNF-induced PARP cleavage was enhanced in the honokiol-treated cells (FIG. 26C).

In a further assay the test system is H1299 cells. Briefly: Invasion assay (Matrigel). It is filed as cell-based, human. The procedure:
(A) RAW 264.7 cells (1×10^4) were plated overnight, pretreated with 5 mM honokiol for 12 h, and then treated with 5 nM RANKL. At 4 and 5 days later, cells were stained for TRAP and evaluated for osteoclastogenesis. Photographs were taken after 5 days of incubation with RANKL. (B) The numbers of TRAP-positive multinucleated osteoclasts (>3 nuclei) per well were counted. (C) H1299 cells (2.5×10^4) were seeded into the upper wells of a Matrigel invasion chamber overnight in the absence of serum, pretreated with […] honokiol for 12 h, treated with 1 nM TNF for 24 h in the presence of 1% serum, and then subjected to invasion assay. The value for no honokiol and no TNF was set to 1.0.
Invasion assay. The membrane invasion culture system was used to assess cell invasion because invasion through the extracellular matrix is a crucial step in tumor metastasis. […] The cells that invaded through the Matrigel (i.e., those that migrated to the lower chamber during incubation) were stained with […] calcein-AM (Molecular Probes) in PBS for 30 min at 37° C. and scanned for fluorescence with a Victor 3 multi-plate reader (Perkin Elmer Life and Analytical Sciences, Boston, Mass.); fluorescent cells were counted. […]

The subject of a further assay is HUVEC. Description: In Vitro Angiogenesis Assay (tube formation). It is filed as cell-based, human. Conditions: 8 ug/ml, 6 h.

As for `C=CCc1ccc(O)c(-c2ccc(O)c(CC=C)c2)c1` [HNK, Honokiol], the “apoptosis in SU-DHL-4 cells” value in the assay on SU-DHL-4 cells is listed as “induced apoptosis in SU-DHL-4 cells”. Moreover, in the assay with KBM-5 cells, the “TNF-induced apoptosis (Live/Dead assay)” value stood at 65%. In addition, the “TNF-induced tumor cell invasion” value in the assay on H1299 cells (H1299, 10 mM (printed) honokiol 12 h, 1 nM TNF 24 h) is recorded as “suppressed this activity”. In addition, the “invasion activity of honokiol alone” value in the assay on H1299 cells (H1299, no TNF) is listed as “had no invasion activity”. In the assay with HUVEC, the “tube formation by endothelial cells” value is given as “significantly inhibited the tube formation”.
